The structures appear in SMILES notation. pIC50: −log10 of the molar value. Values joined by “and” are separate entries in the source; they are usually repeats but may differ in a detail not shown here. Equal entries are not always repeated.

One assay concerns the target T1, Cytochrome P450 2A6 (Homo sapiens, UniProt P11509).
T1 sequence (P11509 whole entry): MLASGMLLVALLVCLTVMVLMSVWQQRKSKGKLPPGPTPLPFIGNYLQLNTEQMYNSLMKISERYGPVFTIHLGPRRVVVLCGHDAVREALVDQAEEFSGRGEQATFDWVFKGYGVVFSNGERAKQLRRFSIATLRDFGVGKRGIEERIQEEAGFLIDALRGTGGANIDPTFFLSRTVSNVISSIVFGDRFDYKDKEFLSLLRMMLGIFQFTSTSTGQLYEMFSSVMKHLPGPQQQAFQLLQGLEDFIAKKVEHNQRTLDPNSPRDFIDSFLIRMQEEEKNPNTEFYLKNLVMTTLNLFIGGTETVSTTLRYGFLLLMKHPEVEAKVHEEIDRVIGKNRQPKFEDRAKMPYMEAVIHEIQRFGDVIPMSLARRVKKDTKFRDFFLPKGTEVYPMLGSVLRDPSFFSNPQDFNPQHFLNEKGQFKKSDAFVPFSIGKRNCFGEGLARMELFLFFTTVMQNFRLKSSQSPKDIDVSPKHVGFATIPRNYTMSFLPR
The assay can be described thus: Inhibition Assay. As to conditions: pH 7.6; 37 °C. The source says: (§1) Inhibition assay using cytochrome P450 enzyme CYP2A6 and CYP2A13.

Another assay deals with T2, Cytochrome P450 2A13 (Homo sapiens, UniProt Q16696).
T2 sequence (Q16696 whole entry): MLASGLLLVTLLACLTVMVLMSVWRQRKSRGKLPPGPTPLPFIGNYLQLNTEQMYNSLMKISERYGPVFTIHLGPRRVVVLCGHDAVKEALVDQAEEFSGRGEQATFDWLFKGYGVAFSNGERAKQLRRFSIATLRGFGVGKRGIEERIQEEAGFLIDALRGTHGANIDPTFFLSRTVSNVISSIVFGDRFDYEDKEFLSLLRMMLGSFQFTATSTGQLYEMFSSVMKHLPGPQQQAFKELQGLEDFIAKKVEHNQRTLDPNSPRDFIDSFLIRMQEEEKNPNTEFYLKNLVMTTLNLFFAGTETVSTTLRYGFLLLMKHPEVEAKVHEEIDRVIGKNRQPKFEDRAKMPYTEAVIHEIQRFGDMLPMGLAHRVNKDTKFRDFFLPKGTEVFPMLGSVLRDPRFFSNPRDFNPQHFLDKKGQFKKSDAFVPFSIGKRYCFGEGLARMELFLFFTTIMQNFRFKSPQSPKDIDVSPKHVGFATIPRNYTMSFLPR
The assay is described as follows: Inhibition Assay. As to conditions: pH 7.6; 37 °C.
Source text: as §1

In the case of `N#CCCCCn1ccnc1` [1-Subsituted 1H-imidazole, 22], the figures for the pIC50 against Cytochrome P450 2A6 and against Cytochrome P450 2A13 were 4.65 and 4.72, respectively. The corresponding values for `O=C(O)CCCCn1ccnc1` are 3.75 and 4.09. For the compound `C=Cn1ccnc1` [1-ethenyl-1H-imidazole], the pIC50 on Cytochrome P450 2A6 and at Cytochrome P450 2A13 was under 3.52 throughout. Take `CCCCCCCCCc1ncco1` [2-Subsituted oxazole, 30]: the negative logarithm of the IC50 (pIC50) on Cytochrome P450 2A6 and against Cytochrome P450 2A13 was under 3.52 in each case. In the case of `CCOC(=O)CCn1ccnc1` [1-Subsituted 1H-imidazole, 17], the values for the negative-log IC50 (pIC50) against Cytochrome P450 2A6 and against Cytochrome P450 2A13 were under 3.52 and 3.62, respectively.

Turning to `CC/C=C/Cc1ncc[nH]1` [2-Subsituted 1H-imidazole, 28], the pIC50 (usually the negative decadic logarithm of the IC50, by convention in mol/L) against Cytochrome P450 2A6 is under 3.52; against Cytochrome P450 2A13 it was 3.84.

Regarding `CC(C)=CCn1ccnc1` [1-Subsituted 1H-imidazole, 9], at Cytochrome P450 2A6, the pIC50 was 5.11. On to `CCCCCn1ccnc1` [1-Subsituted 1H-imidazole, 3], for which the negative logarithm of the IC50 (pIC50) against Cytochrome P450 2A6 was 5.68; against Cytochrome P450 2A13, 5.37. Take `COc1ccc(-c2ncco2)cc1` [2-Subsituted oxazole, 29]: the pIC50 against Cytochrome P450 2A6 is 3.52; against Cytochrome P450 2A13, 4.31. `OCCCCn1ccnc1` [1-Subsituted 1H-imidazole, 19]: the pIC50 against Cytochrome P450 2A6 and against Cytochrome P450 2A13 was under 3.52 throughout.

For `C=CCCCCn1ccnc1` [1-Subsituted 1H-imidazole, 13], the negative-log IC50 (pIC50) is 5.85 at Cytochrome P450 2A6 and 5.62 against Cytochrome P450 2A13. As for `CC(C)CCn1ccnc1` [1-Subsituted 1H-imidazole, 7], the negative-log IC50 (pIC50) on Cytochrome P450 2A6 was 5.51.

On to `CCOC(=O)CCCn1ccnc1` [1-Subsituted 1H-imidazole, 18], for which the values for the pIC50 against Cytochrome P450 2A6 and on Cytochrome P450 2A13 were under 3.52 and 3.91, respectively.

Regarding `CCCCCCCCCc1ncc[nH]1` [2-Subsituted 1H-imidazole, 27], the negative-log IC50 (pIC50) on Cytochrome P450 2A6 was under 3.52; on Cytochrome P450 2A13 it was 3.56.

Consider `CCCCn1ccnc1` [1-Subsituted 1H-imidazole, 2], for which the pIC50 at Cytochrome P450 2A6 was 5.07; against Cytochrome P450 2A13, 4.36.

For the compound `COc1ccc(C2=NCCO2)cc1` [2-Subsituted oxazoline, 31], the pIC50 at Cytochrome P450 2A6 and at Cytochrome P450 2A13 was under 3.52 in each case. On to `c1cn(CC2CC2)cn1`, for which the results for the pIC50 against Cytochrome P450 2A6 and at Cytochrome P450 2A13 were 4.27 and 3.83, respectively. Regarding `CC#CCn1ccnc1` [1-Subsituted 1H-imidazole, 15], the negative logarithm of the IC50 (pIC50) at Cytochrome P450 2A6 was 4.19; against Cytochrome P450 2A13, 3.63. Turning to `CC/C=C/CCn1ccnc1` [1-Subsituted 1H-imidazole, 12], the pIC50 is 5.15 and 4.94 on Cytochrome P450 2A6; 5.26 against Cytochrome P450 2A13. On to `CC(C)=CCCC(C)Cc1ncc[nH]1` (centres undefined) [2-Subsituted 1H-imidazole, 26], for which the pIC50 was under 3.52 on Cytochrome P450 2A6 and 3.61 on Cytochrome P450 2A13. The corresponding values for `CC(C)=CCC/C(C)=C\Cn1ccnc1` [1-Subsituted 1H-imidazole, 14] are 5.24 and 5.24.

Consider `CCCn1ccnc1` [1-Subsituted 1H-imidazole, 1], for which the negative-log IC50 (pIC50) against Cytochrome P450 2A6 and against Cytochrome P450 2A13 was under 3.52 in each case. The compound `CCCCCCn1ccnc1` [1-Subsituted 1H-imidazole, 4] had a negative logarithm of the IC50 (pIC50) against Cytochrome P450 2A6 of 5.57. As to `CCCCCCCn1ccnc1` [1-Subsituted 1H-imidazole, 5], the results for the negative logarithm of the IC50 (pIC50) on Cytochrome P450 2A6 and against Cytochrome P450 2A13 were 4.96 and 5.51, respectively. On to `OCCCCCn1ccnc1` [1-Subsituted 1H-imidazole, 20], for which the negative logarithm of the IC50 (pIC50) against Cytochrome P450 2A6 was 3.91; against Cytochrome P450 2A13, under 3.52. `CC/C=C/Cn1ccnc1` [1-Subsituted 1H-imidazole, 10]: the negative logarithm of the IC50 (pIC50) against Cytochrome P450 2A6 was 5.17; on Cytochrome P450 2A13, 4.94.

(Values after BindingDB's records for doi:10.1002/cbic.200800712 (University of Basel, 2009).)
